PubChem BioAssay (NCI)
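Growth conditions: 96-well plates. Treatment: test compound, 48 hours, 5 concentrations. Analysis: linear interpolation between bracketing concentrations; unreached endpoints set to highest concentration. GI50 marks 50% less growth. TGI: total growth inhibition.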

Tested on: UACC-62 melanoma
Assay: DTP human tumour cell line panel, 48 h

Row | Compound | TGI [µM]
1 | O=c1c(-c2ccccc2)c(SCCN2CCCC2)n(-c2ccccc2)c(=S)n1-c1ccccc1 | > 100
2 | O=C1C(Cl)=C(Cl)C(Cl)(Cl)C(Cl)C1(Cl)Cl (configuration not stated) | 32.9
3 | COc1ccccc1-c1cc(=O)c2c(C)cc(C)nc2[nH]1 | > 100

Tested on: SN12C renal
Assay: DTP human tumour cell line panel, 48 h

Row | Compound | TGI [µM]
4 | O=c1cn[nH]c2nc3ccccc3n12 | > 100
5 | O=c1c(-c2ccccc2)c(SCCN2CCCC2)n(-c2ccccc2)c(=S)n1-c1ccccc1 | > 100
6 | O=C1C(Cl)=C(Cl)C(Cl)(Cl)C(Cl)C1(Cl)Cl (configuration not stated) | 50.6
7 | COc1ccccc1-c1cc(=O)c2c(C)cc(C)nc2[nH]1 | > 100
8 | C=CC(O)(CBr)CCC(Br)C(C)(C)Cl (configuration not stated) | > 10

Tested on: KM12 colon
Assay: DTP human tumour cell line panel, 48 h

Row | Compound | TGI [µM]
9 | O=c1cn[nH]c2nc3ccccc3n12 | > 100
10 | O=c1c(-c2ccccc2)c(SCCN2CCCC2)n(-c2ccccc2)c(=S)n1-c1ccccc1 | > 100
11 | O=C1C(Cl)=C(Cl)C(Cl)(Cl)C(Cl)C1(Cl)Cl (configuration not stated) | 50.6
12 | COc1ccccc1-c1cc(=O)c2c(C)cc(C)nc2[nH]1 | > 100
13 | C=CC(O)(CBr)CCC(Br)C(C)(C)Cl (configuration not stated) | > 10

Tested on: M14 melanoma
Assay: DTP human tumour cell line panel, 48 h

Row | Compound | TGI [µM]
14 | O=c1cn[nH]c2nc3ccccc3n12 | > 100
15 | O=c1c(-c2ccccc2)c(SCCN2CCCC2)n(-c2ccccc2)c(=S)n1-c1ccccc1 | > 100
16 | O=C1C(Cl)=C(Cl)C(Cl)(Cl)C(Cl)C1(Cl)Cl (configuration not stated) | 90.8
17 | COc1ccccc1-c1cc(=O)c2c(C)cc(C)nc2[nH]1 | > 100
18 | C=CC(O)(CBr)CCC(Br)C(C)(C)Cl (configuration not stated) | > 10

Tested on: PC-3 prostate
Assay: DTP human tumour cell line panel, 48 h

Row | Compound | TGI [µM] | GI50 [µM]
19 | O=c1cn[nH]c2nc3ccccc3n12 | > 100 | –
20 | O=c1c(-c2ccccc2)c(SCCN2CCCC2)n(-c2ccccc2)c(=S)n1-c1ccccc1 | > 100 | –
21 | O=C1C(Cl)=C(Cl)C(Cl)(Cl)C(Cl)C1(Cl)Cl (configuration not stated) | 77.1 | –
22 | COc1ccccc1-c1cc(=O)c2c(C)cc(C)nc2[nH]1 | > 100 | 48.3
23 | C=CC(O)(CBr)CCC(Br)C(C)(C)Cl (configuration not stated) | > 10 | –

Tested on: HOP-62 NSCLC
Assay: DTP human tumour cell line panel, 48 h

Row | Compound | TGI [µM]
24 | O=c1cn[nH]c2nc3ccccc3n12 | > 100
25 | O=c1c(-c2ccccc2)c(SCCN2CCCC2)n(-c2ccccc2)c(=S)n1-c1ccccc1 | > 100
26 | O=C1C(Cl)=C(Cl)C(Cl)(Cl)C(Cl)C1(Cl)Cl (configuration not stated) | 76.2
27 | COc1ccccc1-c1cc(=O)c2c(C)cc(C)nc2[nH]1 | > 100
28 | C=CC(O)(CBr)CCC(Br)C(C)(C)Cl (configuration not stated) | > 10

Tested on: OVCAR-4 ovarian
Assay: DTP human tumour cell line panel, 48 h

Row | Compound | TGI [µM]
29 | O=c1cn[nH]c2nc3ccccc3n12 | > 100
30 | O=c1c(-c2ccccc2)c(SCCN2CCCC2)n(-c2ccccc2)c(=S)n1-c1ccccc1 | > 100
31 | COc1ccccc1-c1cc(=O)c2c(C)cc(C)nc2[nH]1 | > 100
32 | C=CC(O)(CBr)CCC(Br)C(C)(C)Cl (configuration not stated) | > 10

Tested on: NCI-H23 lung
Assay: DTP human tumour cell line panel, 48 h

Row | Compound | TGI [µM]
33 | O=c1cn[nH]c2nc3ccccc3n12 | > 100
34 | O=c1c(-c2ccccc2)c(SCCN2CCCC2)n(-c2ccccc2)c(=S)n1-c1ccccc1 | > 100
35 | O=C1C(Cl)=C(Cl)C(Cl)(Cl)C(Cl)C1(Cl)Cl (configuration not stated) | 52.9
36 | COc1ccccc1-c1cc(=O)c2c(C)cc(C)nc2[nH]1 | > 100
37 | C=CC(O)(CBr)CCC(Br)C(C)(C)Cl (configuration not stated) | > 10

Tested on: IGROV1 ovarian
Assay: DTP human tumour cell line panel, 48 h

Row | Compound | TGI [µM]
38 | O=c1cn[nH]c2nc3ccccc3n12 | > 100
39 | O=c1c(-c2ccccc2)c(SCCN2CCCC2)n(-c2ccccc2)c(=S)n1-c1ccccc1 | > 100
40 | O=C1C(Cl)=C(Cl)C(Cl)(Cl)C(Cl)C1(Cl)Cl (configuration not stated) | 33.2
41 | COc1ccccc1-c1cc(=O)c2c(C)cc(C)nc2[nH]1 | > 100
42 | C=CC(O)(CBr)CCC(Br)C(C)(C)Cl (configuration not stated) | > 10

Tested on: K-562 leukemia
Assay: DTP human tumour cell line panel, 48 h

Row | Compound | TGI [µM]
43 | O=c1c(-c2ccccc2)c(SCCN2CCCC2)n(-c2ccccc2)c(=S)n1-c1ccccc1 | > 100
44 | O=C1C(Cl)=C(Cl)C(Cl)(Cl)C(Cl)C1(Cl)Cl (configuration not stated) | > 100
45 | COc1ccccc1-c1cc(=O)c2c(C)cc(C)nc2[nH]1 | > 100
46 | C=CC(O)(CBr)CCC(Br)C(C)(C)Cl (configuration not stated) | > 10

Tested on: RPMI-8226 leukemia
Assay: DTP human tumour cell line panel, 48 h

Row | Compound | TGI [µM]
47 | O=c1c(-c2ccccc2)c(SCCN2CCCC2)n(-c2ccccc2)c(=S)n1-c1ccccc1 | > 100
48 | O=C1C(Cl)=C(Cl)C(Cl)(Cl)C(Cl)C1(Cl)Cl (configuration not stated) | 70.4
49 | COc1ccccc1-c1cc(=O)c2c(C)cc(C)nc2[nH]1 | > 100
50 | C=CC(O)(CBr)CCC(Br)C(C)(C)Cl (configuration not stated) | > 10

Tested on: SK-MEL-2 melanoma
Assay: DTP human tumour cell line panel, 48 h

Row | Compound | TGI [µM]
51 | O=c1cn[nH]c2nc3ccccc3n12 | > 100
52 | O=c1c(-c2ccccc2)c(SCCN2CCCC2)n(-c2ccccc2)c(=S)n1-c1ccccc1 | > 100
53 | O=C1C(Cl)=C(Cl)C(Cl)(Cl)C(Cl)C1(Cl)Cl (configuration not stated) | 34.3
54 | COc1ccccc1-c1cc(=O)c2c(C)cc(C)nc2[nH]1 | > 100
55 | C=CC(O)(CBr)CCC(Br)C(C)(C)Cl (configuration not stated) | > 10

Tested on: U251 CNS
Assay: DTP human tumour cell line panel, 48 h

Row | Compound | TGI [µM] | GI50 [µM]
56 | O=c1cn[nH]c2nc3ccccc3n12 | > 100 | –
57 | O=c1c(-c2ccccc2)c(SCCN2CCCC2)n(-c2ccccc2)c(=S)n1-c1ccccc1 | > 100 | –
58 | O=C1C(Cl)=C(Cl)C(Cl)(Cl)C(Cl)C1(Cl)Cl (configuration not stated) | 44.6 | –
59 | COc1ccccc1-c1cc(=O)c2c(C)cc(C)nc2[nH]1 | > 100 | > 100
60 | C=CC(O)(CBr)CCC(Br)C(C)(C)Cl (configuration not stated) | > 10 | –

Tested on: MDA-N
Assay: DTP human tumour cell line panel, 48 h

Row | Compound | TGI [µM] | GI50 [µM]
61 | O=c1cn[nH]c2nc3ccccc3n12 | > 100 | –
62 | O=c1c(-c2ccccc2)c(SCCN2CCCC2)n(-c2ccccc2)c(=S)n1-c1ccccc1 | > 100 | –
63 | O=C1C(Cl)=C(Cl)C(Cl)(Cl)C(Cl)C1(Cl)Cl (configuration not stated) | 66.2 | –
64 | COc1ccccc1-c1cc(=O)c2c(C)cc(C)nc2[nH]1 | > 100 | 33.2
65 | C=CC(O)(CBr)CCC(Br)C(C)(C)Cl (configuration not stated) | > 10 | –

Tested on: NCI-H226 lung
Assay: DTP human tumour cell line panel, 48 h

Row | Compound | TGI [µM]
66 | O=c1cn[nH]c2nc3ccccc3n12 | > 100
67 | O=c1c(-c2ccccc2)c(SCCN2CCCC2)n(-c2ccccc2)c(=S)n1-c1ccccc1 | > 100
68 | COc1ccccc1-c1cc(=O)c2c(C)cc(C)nc2[nH]1 | > 100
69 | C=CC(O)(CBr)CCC(Br)C(C)(C)Cl (configuration not stated) | > 10
